Laboratory results taken from ChEMBL document CHEMBL4184333, “Expanding Benzoxazole-Based Inosine 5'-Monophosphate Dehydrogenase (IMPDH) Inhibitor Structure-Activity As Potential Antituberculosis Agents” (J Med Chem, 2018).
≈ marks a conversion by molar mass, not a printed value.

Test system: Mycobacterium tuberculosis
Assay: Antitubercular activity against Mycobacterium tuberculosis SRMV2.6 harboring IMPDH2 Y487C mutant using 7H9/ADC/Tween medium after 1 week in absence of guanine by Alamar blue assay
Format: functional

Row | Compound | MIC [µM]
1 | COc1ccc(OC(C)C(=O)Nc2ccc3oc(-c4ccncc4)nc3c2)cc1 (centres undefined) | >100
2 | C[C@H](Nc1cccc(F)c1F)C(=O)Nc1ccc2oc(-c3ccc(C#N)cc3)nc2c1 | >100
3 | CCOC(=O)COc1ccc(-c2nc3cc(NC(=O)[C@H](C)Oc4cccc(Cl)c4Cl)ccc3o2)cc1 | 3.1 (≈ 1.64 µg/mL)
4 | C[C@H](Oc1cccc(Cl)c1Cl)C(=O)Nc1ccc2oc(-c3ccc(C(=O)O)cc3)nc2c1 | 25 (≈ 11.8 µg/mL)
